# Assay results as given in US7244557B2, “Method of screening modulators of Nod1 signaling” (Regents of the University of Michigan, priority 2003, dated 2007).
# Tests used:
# [1] = test system: bone marrow-derived macrophages from nod1-deficient mice; test: Cytokine secretion assay (ELISA), bone marrow-derived macrophages from nod1-deficient mice; type: cell-based, mouse; settings: 12 hr
# Protocol: (§1) A), B), C) 3×10^5 bone marrow-derived macrophages from wild-type littermates (wt) and nod1-deficient mice were stimulated with 100 ng/ml of iE-DAP, MDP or dsRNA for 12 hr A), B). 0, 100 ng/ml Salmonella typhimurium LPS was used in the presence of 0, 1, 1000 ng/ml iE-DAP or 0, 0.1 1 μM immunostimulatory CpG as indicated for 12 hr C) The concentration of TNF-α (a) and IL-6 (b,c) were determined by ELISA using specific antibodies. Values represent the mean of normalized data±S.D. of triplicate cultures.
# Reagents. LPS from S. typhimurium, intact and alkaline-detoxified LPS from E. coli O55:B5 as well as purified lipid A preparations of E. coli F583, MDP, DAP and dsRNA were obtained from Sigma-Aldrich (St. Louis, Mo.). PGN from S. aureus was from Fluka-Chemie (Buchs, Germany). Palmitoyl-Cys ((RS)-2,3-di(palmitoyloxy)-propyl)-Ala-Gly) (sBLP), was obtained from Bachem (Torrance, Calif.). The tetrameric form of the disaccharide dipeptide was described previously (Inohara et al., J. Biol. Chem. 278:5509 [2003]). iE-DAP and iQ-DAP, M3P and M4P were synthesized as described (Kitaura et al., J. Med. Chem. 25:335 [1982]) with small modification. Purification of PGN from B. subtilis 168 and C. flaccumfaciens with hydrolases, Cellosyl or recombinant AtlE (amidase domain) and the fractionation and purification of reduced B. subtilis PGN digested with Cellosyl were performed as previously described (Heilman et al., Mol. Microbiol. 24:1013 [1997]; Atrih et al., J. Bact. 181:3956 [1999]). Removal of proteins and reduction of LPS fraction. E. coli O55:B5 LPS (Sigma) was treated with proteinase K at 37° C. for 12 hr to digest contaminating proteins. To eliminate lipoproteins, LPS was subjected to modified phenol extraction with deoxycholate-containing phenol as described (Hirschfeld et al., J. Immunol. 165:618 [2000]). […] The amino acid composition of E. coli O55:B5 LPS was determined using AccQ·Tag amino acid analysis system (Waters, Milford, Mass.) after hydrolysis at 110° C. for 24 hr. […]
# [2] = test system: bone marrow-derived macrophages from wild-type mice; test: Cytokine secretion assay (ELISA), bone marrow-derived macrophages from wild-type mice; type: cell-based, mouse; settings: 12 hr; for secretion of IL-6 / secretion of TNF-α: 100 ng/ml
# Protocol: as §1
# Reagents. LPS from S. typhimurium, intact and alkaline-detoxified LPS from E. coli O55:B5 as well as purified lipid A preparations of E. coli F583, MDP, DAP and dsRNA were obtained from Sigma-Aldrich (St. Louis, Mo.). PGN from S. aureus was from Fluka-Chemie (Buchs, Germany). Palmitoyl-Cys ((RS)-2,3-di(palmitoyloxy)-propyl)-Ala-Gly) (sBLP), was obtained from Bachem (Torrance, Calif.). The tetrameric form of the disaccharide dipeptide was described previously (Inohara et al., J. Biol. Chem. 278:5509 [2003]). iE-DAP and iQ-DAP, M3P and M4P were synthesized as described (Kitaura et al., J. Med. Chem. 25:335 [1982]) with small modification. Purification of PGN from B. subtilis 168 and C. flaccumfaciens with hydrolases, Cellosyl or recombinant AtlE (amidase domain) and the fractionation and purification of reduced B. subtilis PGN digested with Cellosyl were performed as previously described (Heilman et al., Mol. Microbiol. 24:1013 [1997]; Atrih et al., J. Bact. 181:3956 [1999]). Removal of proteins and reduction of LPS fraction. E. coli O55:B5 LPS (Sigma) was treated with proteinase K at 37° C. for 12 hr to digest contaminating proteins. To eliminate lipoproteins, LPS was subjected to modified phenol extraction with deoxycholate-containing phenol as described (Hirschfeld et al., J. Immunol. 165:618 [2000]). For reduction of carboxyl group in the LPS, the LPS was treated with 1-ethyl-3-(3-dimethylaminopropyl) carbodiimide and then reduced with NaBH4 as described (Taylor et al., Biochemistry 11:1383 [1972]). Preparation of E. coli extract. E. coli K-12 mutants were all based on the SØ864 genetic background (lacZ trp upp relA rpsL) (Neuhard and Thomassen, J. Bacteriol. 126:999). SØ874 carries a large chromosomal deletion removing the gene clusters for the biosynthesis of CA capsule and O-antigen. CLM5 is a derivative of SØ874 with a transposon insertion in the wecC gene that blocks the synthesis of ECA (Marolda et al., J. Bacteriol. 177:5539[1995]). FAM5 is a derivative of SØ874 carrying a deletion that eliminates the incorporation of heptose in the LPS core. Extracts were prepared from all of these E. coli K-12 strains and also from another E. coli K-12 strain, LCD27 YA21-6 (Obtained from Dr. Arisaka, Tokyo Institute of Technology). Bacteria were cultured overnight at 37° C. in Luria broth, killed by treatment with acetone followed by vacuum drying and finally resuspended in 10 mM HEPES. The extract was treated with 1M NaOH at 55° C. for 12 hr and neutralized with 1M HEPES (pH 7.4). The soluble fraction after centrifugation and filtration with 0.22 μm filter was applied to SUPEROSE 12 gel filtration column chromatography. Partial purification of NOD1-stimulatory molecules from E. coli and composition analyses. The amino acid composition of E. coli O55:B5 LPS was determined using AccQ·Tag amino acid analysis system (Waters, Milford, Mass.) after hydrolysis at 110° C. for 24 hr. […]
# [3] = macrophages lacking NOD1, 100 ng/ml
Substance,"enhancement of the secretion of IL-6 induced by LPS ([1]; nod1 −/− macrophages, 100 ng/ml Salmonella typhimurium LPS)",enhancement of the secretion of IL-6 induced by LPS ([2]; 100 ng/ml Salmonella typhimurium LPS),secretion of IL-6 [2],secretion of TNF-α [2],"secretion of IL-6 [1, 3]","secretion of TNF-α [1, 3]"
γ-D-glutamy-meso-diaminopimelic acid [iE-DAP],this effect was impaired,enhanced the secretion of IL-6 induced by LPS,induced the secretion,induced the secretion,,
MurNAc-L-Ala-γ-D-Gln [MDP],,,induced the secretion,induced the secretion,responded,responded
